Data: patent publication US20150024072A1, “METHODS OF TREATING A SKIN CONDITION WITH MALVA NEGLECTA” (Johnson & Johnson Consumer Companies, Inc., priority 2013, published 2015)

Tested on: Human dermal fibroblasts
Experiment: Hyaluronic Acid (HA) Secretion (Assay 4, ELISA)
Assay type: cell-based
Conditions: 20 ng/ml (positive control), 48 hours post-treatment
Experimental: Human dermal fibroblasts were maintained in flask in growth medium consisting of DMEM plus 10% fetal bovine serum, 50 units/ml penicillin and 50 μg/ml streptomycin. Cells were seeded at 10,000 cells per well in a 96 well plate. After 24 hours incubation, cells were treated with test articles dissolved in DMSO or DMSO without extracts (as control) prepared in DMEM+2% FBS. Culture media was collected at 48 hours post-treatment, and measured for HA (Hyaluronic acid) secretion using Hyaluronan ELISA kit (Echelon, cat. #K-1200) following the manufacturer protocol. To assess activity, the colorimetric chance was measured at 405 nm and the results expressed as a fold change over untreated controls.

TGF-b
HA secretion Fold Change: 2.54 fold
